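All cell lines were grown in 96-well plates and treated with compound for 48 hours. GI50 is the concentration that inhibits growth by half.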 Active and inactive are the calls of the source. Rule as the data show it: active = GI50 up to about 1.1 µM and inactive = higher.
Experiments:
Assay in all cases: DTP human tumour cell line panel, 48 h
SF-539 = system: SF-539
U-251 = system: U-251
HL-60 = system: HL-60
T47D = system: T47D
K562 = system: K562
CCRF-CEM = system: CCRF-CEM
PC-3 = system: PC-3
LOX IMVI = system: LOX IMVI
OVCAR-5 = system: OVCAR-5
HCT-116 = system: HCT-116
UO-31 = system: UO-31
IGROV-1 = system: IGROV-1
UACC-257 = system: UACC-257
RPMI-8226 = system: RPMI-8226
OVCAR-8 = system: OVCAR-8
SW-620 = system: SW-620
EKVX = system: EKVX
OVCAR-4 = system: OVCAR-4
SNB-19 = system: SNB-19
TK-10 = system: TK-10

Measured: GI50

NC(CCC(=O)O)C(=O)N1CCN(c2nc(N3CCCC3)c3nc(Cl)c(NCc4ccccc4)nc3n2)CC1 (stereo not given)
inactive: SF-539 13.2 µM | U-251 13.8 µM | HL-60 7.13 µM | T47D 6.64 µM | K562 12.7 µM | CCRF-CEM 7.19 µM | PC-3 13.3 µM | LOX IMVI 14.6 µM | OVCAR-5 18.7 µM | HCT-116 13.9 µM | UO-31 9.29 µM | IGROV-1 21.2 µM | UACC-257 14.5 µM | RPMI-8226 5.79 µM | OVCAR-8 15.6 µM | SW-620 18.2 µM | EKVX 13.8 µM | OVCAR-4 10.5 µM | SNB-19 17.5 µM | TK-10 17.1 µM

C1=N\c2ccc(cc2)-c2ccc(cc2)/N=C\c2ccccc2OCc2cccc(n2)COc2ccccc2/1
inactive: SF-539 26.7 µM | U-251 7.59 µM | HL-60 > 100 µM | T47D > 54 µM | K562 > 100 µM | CCRF-CEM > 100 µM | PC-3 > 100 µM | LOX IMVI > 44.2 µM | OVCAR-5 > 63.5 µM | HCT-116 24.4 µM | UO-31 > 60.7 µM | IGROV-1 40.6 µM | UACC-257 > 100 µM | RPMI-8226 > 100 µM | OVCAR-8 31.8 µM | SW-620 > 100 µM | EKVX 36.4 µM | OVCAR-4 > 100 µM | SNB-19 13.9 µM | TK-10 26.6 µM

Cc1cn2cc(-c3cccs3)nc2s1
inactive: SF-539 > 100 µM | U-251 > 100 µM | HL-60 55.8 µM | T47D 25.4 µM | K562 99.3 µM | CCRF-CEM 54.6 µM | PC-3 > 74.3 µM | LOX IMVI > 45.9 µM | OVCAR-5 > 100 µM | HCT-116 > 100 µM | UO-31 48.8 µM | IGROV-1 > 86.3 µM | UACC-257 > 85.9 µM | RPMI-8226 > 100 µM | OVCAR-8 > 100 µM | SW-620 > 100 µM | EKVX > 65.8 µM | OVCAR-4 > 100 µM | SNB-19 > 100 µM | TK-10 > 73.3 µM

Cc1ccc(O)cc1.Cc1cccc(O)c1.Cc1ccccc1O [CRESOL]
inactive: SF-539 > 100 µM | U-251 > 100 µM | HL-60 > 100 µM | T47D > 100 µM | K562 > 100 µM | CCRF-CEM 18.7 µM | PC-3 73.3 µM | LOX IMVI > 100 µM | OVCAR-5 > 100 µM | HCT-116 > 100 µM | UO-31 > 100 µM | IGROV-1 88.9 µM | UACC-257 > 100 µM | RPMI-8226 > 100 µM | OVCAR-8 > 100 µM | SW-620 > 100 µM | EKVX > 100 µM | OVCAR-4 89.3 µM | SNB-19 > 100 µM | TK-10 > 100 µM

Source: ChEMBL document CHEMBL1201862, “PubChem BioAssay data set” (2004)
